Assay results published in patent US20070049593A1 (priority 2004, published 2007).
pIC50: −log10 of the molar value. Structures can show the parent of a compound that is named as a salt.

target: T1, HCV polymerase (Hepatitis C virus genotype 1b, UniProt P26663); test: biochemical; design: species or system HCV BK strain
T1 construct: a region encoding NS5B (J Virol 1991 March, 65(3), 1105-13, 544 amino acids after deletion of 47 amino acids on the C-terminal); 6xHis (C); made in house; host or cells: Escherichia coli
T1 sequence (P26663 2420-2963): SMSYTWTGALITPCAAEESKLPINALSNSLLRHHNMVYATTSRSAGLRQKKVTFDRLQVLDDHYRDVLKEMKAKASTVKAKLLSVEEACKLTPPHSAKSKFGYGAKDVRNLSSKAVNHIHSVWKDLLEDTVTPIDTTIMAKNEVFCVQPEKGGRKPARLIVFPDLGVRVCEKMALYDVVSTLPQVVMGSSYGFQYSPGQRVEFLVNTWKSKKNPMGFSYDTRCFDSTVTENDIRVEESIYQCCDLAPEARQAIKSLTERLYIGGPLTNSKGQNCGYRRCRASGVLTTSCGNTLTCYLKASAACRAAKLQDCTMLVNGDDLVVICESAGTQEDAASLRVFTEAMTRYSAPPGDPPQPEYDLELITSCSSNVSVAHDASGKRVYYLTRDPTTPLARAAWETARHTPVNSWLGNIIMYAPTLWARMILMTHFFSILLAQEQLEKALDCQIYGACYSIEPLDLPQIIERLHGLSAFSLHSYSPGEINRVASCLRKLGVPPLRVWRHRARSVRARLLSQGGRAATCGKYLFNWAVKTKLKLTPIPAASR
How it was run: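 His-tagged NS5B (BK strain, 47-aa C-terminal deletion, E. coli-expressed) at 0.5 μg/ml copied 5 μg/ml run-off RNA bearing the HCV 3′ UTR with 2 μM UTP plus [3H]UTP, 50 μM ATP/GTP, in pH 7.5 Tris with 5 mM MgCl2, 25 °C, 90 min. TCA-precipitated RNA was counted and IC50 calculated.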

SMILES	pIC50
COC(=O)[C@H](Cc1ccncc1)NC(=O)c1ccc2c(C3CCCCC3)c3n(c2c1)CCOc1cc(OC)ccc1-3 [Example 2-356, methyl (S)-2-[(12-cyclohexyl-3-methoxy-6,7-dihydro-5-oxa-7a-azadibenzo[a,e]azulene-9-carbonyl)amino]-3-(pyridin-4-yl)propionate]	> 7.00
O=C(O)c1ccc2c(C3CCCCC3)c3n(c2c1)CCOc1c-3cccc1N(CC(=O)N1CCCOCC1)CC(=O)N1CCCOCC1 [Example 2-357, 4-{bis[2-(1,4-oxazepan-4-yl)-2-oxoethyl]amino}-12-cyclohexyl-6,7-dihydro-5-oxa-7a-azadibenzo[a,e]azulene-9-carboxylic acid]	> 7.00
CC(C)(NC(=O)c1ccc2c(C3CCCCC3)c3n(c2c1)CCOc1ccccc1-3)C(=O)N1CCC(O)(c2ccc(F)cc2)CC1 [Example 2-358, N-{2-[4-(4-fluorophenyl)-4-hydroxypiperidin-1-yl]-1,1-dimethyl-2-oxoethyl]-12-cyclohexyl-6,7-dihydro-5-oxa-7a-azadibenzo[a,e]azulene-9-carboxamide]	> 7.00
O=C(O)c1ccc2c(C3CCCCC3)c3n(c2c1)CCOc1c-3cccc1N(CC(=O)N1CCOCC1)CC(=O)N1CCOCC1 [Example 2-359, 4-{bis[2-(morpholin-4-yl)-2-oxoethyl]amino}-12-cyclohexyl-6,7-dihydro-5-oxa-7a-azadibenzo[a,e]azulene-9-carboxylic acid]	> 7.00
O=C(O)c1ccc2c(C3CCCCC3)c3n(c2c1)CCOc1c-3cccc1N(CCN1CCCOCC1)CCN1CCCOCC1 [Example 2-360, 4-{bis[2-(1,4-oxazepan-4-yl)ethyl]amino}-12-cyclohexyl-6,7-dihydro-5-oxa-7a-azadibenzo[a,e]azulene-9-carboxylic acid trihydrochloride]	> 7.00
O=C(O)c1ccc2c(C3CCCCC3)c3n(c2c1)CCOc1c-3cccc1N(CCN1CCOCC1)CCN1CCOCC1 [Example 2-361, 4-{bis[2-(morpholin-4-yl)ethyl]amino}-12-cyclohexyl-6,7-dihydro-5-oxa-7a-azadibenzo[a,e]azulene-9-carboxylic acid trihydrochloride]	> 7.00
COC(=O)Nc1ccc(C[C@H](NC(=O)c2ccc3c(C4CCCCC4)c4n(c3c2)CCOc2cc(OC)ccc2-4)C(=O)OC)cc1 [Example 2-362, methyl (S)-2-[(12-cyclohexyl-3-methoxy-6,7-dihydro-5-oxa-7a-azadibenzo[a,e]azulene-9-carbonyl)amino]-3-(4-methoxycarbonylaminophenyl)propionate]	> 7.00
COC(=O)[C@H](Cc1ccc(O)c(Cl)c1)NC(=O)c1ccc2c(C3CCCCC3)c3n(c2c1)CCOc1cc(OC)ccc1-3 [Example 2-363, methyl (S)-3-(3-chloro-4-hydroxyphenyl)-2-[(12-cyclohexyl-3-methoxy-6,7-dihydro-5-oxa-7a-azadibenzo[a,e]azulene-9-carbonyl)amino]propionate]	> 7.00
COC(=O)Nc1ccc(C[C@H](NC(=O)c2ccc3c(C4CCCCC4)c4n(c3c2)CCOc2cc(OC)ccc2-4)C(=O)O)cc1 [Example 2-364, (S)-2-[(12-cyclohexyl-3-methoxy-6,7-dihydro-5-oxa-7a-azadibenzo[a,e]azulene-9-carbonyl)amino]-3-(4-methoxycarbonylaminophenyl)propionic acid]	> 7.00
COc1ccc2c(c1)OCCn1c-2c(C2CCCCC2)c2ccc(C(=O)N[C@@H](Cc3ccc(O)c(Cl)c3)C(=O)O)cc21 [Example 2-365, (S)-3-(3-chloro-4-hydroxyphenyl)-2-[(12-cyclohexyl-3-methoxy-6,7-dihydro-5-oxa-7a-azadibenzo[a,e]azulene-9-carbonyl)amino]propionic acid]	> 7.00
COC(=O)[C@H](CCc1ccc(O)cc1)NC(=O)c1ccc2c(C3CCCCC3)c3n(c2c1)CCOc1cc(OC)ccc1-3 [Example 2-366, methyl (S)-2-[(12-cyclohexyl-3-methoxy-6,7-dihydro-5-oxa-7a-azadibenzo[a,e]azulene-9-carbonyl)amino]-4-(4-hydroxyphenyl)butyrate]	> 7.00
COc1ccc2c(c1)OCCn1c-2c(C2CCCCC2)c2ccc(C(=O)NC(C)(C)c3nc4cc(N(C)C)ccc4[nH]3)cc21 [Example 2-367, N-[1-(5-dimethylamino-1H-benzimidazol-2-yl)-1-methylethyl]-12-cyclohexyl-3-methoxy-6,7-dihydro-5-oxa-7a-azadibenzo[a,e]azulene-9-carboxamide]	> 7.00
COCC(NC(=O)c1ccc2c(C3CCCCC3)c3n(c2c1)CCOc1cc(OC)ccc1-3)C(=O)N1CCC(O)CC1 (centres unmarked) [Example 2-368, N-[2-(4-hydroxypiperidin-1-yl)-1-methoxymethyl-2-oxoethyl]-12-cyclohexyl-3-methoxy-6,7-dihydro-5-oxa-7a-azadibenzo[a,e]azulene-9-carboxamide]	> 7.00
COc1ccc2c(c1)OCCn1c-2c(C2CCCCC2)c2ccc(C(=O)N[C@@H](Cc3ccc(OCc4ccccc4)cc3)c3nccs3)cc21 [Example 2-369, N—(S)-[2-(4-benzyloxyphenyl)-1-(thiazol-2-yl)ethyl]-12-cyclohexyl-3-methoxy-6,7-dihydro-5-oxa-7a-azadibenzo[a,e]azulene-9-carboxamide]	> 7.00
COc1ccc2c(c1)OCCn1c-2c(C2CCCCC2)c2ccc(C(=O)NC(C)(C)c3nc4cc(-c5nc(C)no5)ccc4[nH]3)cc21 [Example 2-370, N-(1-methyl-1-[5-(3-methyl-1,2,4-oxadiazol-5-yl)-1H-benzimidazol-2-yl]ethyl}-12-cyclohexyl-3-methoxy-6,7-dihydro-5-oxa-7a-azadibenzo[a,e]azulene-9-carboxamide]	> 7.00
COc1ccc2c(c1)OCCn1c-2c(C2CCCCC2)c2ccc(C(=O)N[C@@H](CCC(N)=O)C(=O)OC(C)(C)C)cc21 [Example 2-371, tert-butyl (S)-4-carbamoyl-2-[(12-cyclohexyl-3-methoxy-6,7-dihydro-5-oxa-7a-azadibenzo[a,e]azulene-9-carbonyl)amino]butyrate]	> 7.00
COc1ccc2c(c1)OCCn1c-2c(C2CCCCC2)c2ccc(C(=O)N[C@@H](CCC(N)=O)C(=O)O)cc21 [Example 2-372, (S)-4-carbamoyl-2-[(12-cyclohexyl-3-methoxy-6,7-dihydro-5-oxa-7a-azadibenzo[a,e]azulene-9-carbonyl)amino]butyric acid]	> 7.00
COC(=O)[C@H](Cc1ccc(O)cc1)NC(=O)c1ccc2c(C3CCCCC3)c3n(c2c1)CCOc1cc(OC)ccc1-3 [Example 2-373, methyl (S)-2-[(12-cyclohexyl-3-methoxy-6,7-dihydro-5-oxa-7a-azadibenzo[a,e]azulene-9-carbonyl)amino]-3-(4-hydroxyphenyl)propionate]	> 7.00
COC(=O)C(Cc1ccc(C(F)(F)F)cc1)NC(=O)c1ccc2c(C3CCCCC3)c3n(c2c1)CCOc1cc(OC)ccc1-3 (centres unmarked) [Example 2-374, methyl 2-[(12-cyclohexyl-3-methoxy-6,7-dihydro-5-oxa-7a-azadibenzo[a,e]azulene-9-carbonyl)amino]-3-(4-trifluoromethylphenyl)propionate]	> 7.00
COc1ccc2c(c1)OCCn1c-2c(C2CCCCC2)c2ccc(C(=O)N[C@@H](Cc3ccc(O)cc3)C(=O)O)cc21 [Example 2-375, (S)-2-[(12-cyclohexyl-3-methoxy-6,7-dihydro-5-oxa-7a-azadibenzo[a,e]azulene-9-carbonyl)amino]-3-(4-hydroxyphenyl)propionic acid]	> 7.00
COc1ccc2c(c1)OCCn1c-2c(C2CCCCC2)c2ccc(C(=O)N[C@@H](CCc3ccc(O)cc3)C(=O)O)cc21 [Example 2-376, (S)-2-[(12-cyclohexyl-3-methoxy-6,7-dihydro-5-oxa-7a-azadibenzo[a,e]azulene-9-carbonyl)amino]-4-(4-hydroxyphenyl)butyric acid]	> 7.00
COC(=O)[C@H](Cc1ccc(OCC(=O)OC(C)(C)C)cc1)NC(=O)c1ccc2c(C3CCCCC3)c3n(c2c1)CCOc1cc(OC)ccc1-3 [Example 2-377, methyl (S)-3-(4-tert-butoxycarbonylmethoxyphenyl)-2-[(12-cyclohexyl-3-methoxy-6,7-dihydro-5-oxa-7a-azadibenzo[a,e]azulene-9-carbonyl)amino]propionate]	> 7.00
COC(=O)[C@H](Cc1ccc(OCC(=O)O)cc1)NC(=O)c1ccc2c(C3CCCCC3)c3n(c2c1)CCOc1cc(OC)ccc1-3 [Example 2-378, methyl (S)-3-(4-carboxymethoxyphenyl)-2-[(12-cyclohexyl-3-methoxy-6,7-dihydro-5-oxa-7a-azadibenzo[a,e]azulene-9-carbonyl)amino]propionate]	> 7.00
COC(=O)C(CN1CCC(O)CC1)NC(=O)c1ccc2c(C3CCCCC3)c3n(c2c1)CCOc1cc(OC)ccc1-3 (centres unmarked) [Example 2-379, methyl 2-[(12-cyclohexyl-3-methoxy-6,7-dihydro-5-oxa-7a-azadibenzo[a,e]azulene-9-carbonyl)amino]-3-(4-hydroxypiperidin-1-yl)propionate monohydrochloride]	6.00 to 7.00
COc1ccc2c(c1)OCCn1c-2c(C2CCCCC2)c2ccc(C(=O)NC(C)(C)c3nc4cc(F)ccc4[nH]3)cc21 [Example 2-380, N-[1-(5-fluoro-1H-benzimidazol-2-yl)-1-methylethyl]-12-cyclohexyl-3-methoxy-6,7-dihydro-5-oxa-7a-azadibenzo[a,e]azulene-9-carboxamide]	> 7.00
COc1ccc2c(c1)OCCn1c-2c(C2CCCCC2)c2ccc(C(=O)N[C@@H](Cc3ccc(O)cc3)c3nccs3)cc21 [Example 2-381, N—(S)-[2-(4-hydroxyphenyl)-1-(thiazol-2-yl)ethyl]-12-cyclohexyl-3-methoxy-6,7-dihydro-5-oxa-7a-azadibenzo[a,e]azulene-9-carboxamide]	> 7.00
